Reference: US20140171319A1, “Aqueous Composition Comprising a Pesticide and a Base Selected from an Alkali Salt of Hydrogencarbonate” (BASF SE, priority 2011, published 2014)

Key:
[1] = Volatility: loss of dicamba from aqueous tank mix on petri dish; assay type: physicochemical; details: 70° C., 24 h, atmospheric pressure
Method: The volatility was determined by analyzing the loss of material by HLPL at 70° C. after 24 h at atmospheric pressure. A sample of the aqueous tank mix (300 l/ha) was placed on the petri dish with a defined area (corresponding to a desired field application rate, such as 500 g/ha pesticide).
The application rate was 500 g/ha dicamba (free acid), 1000 g/ha potassium glyphosate, 300 g/ha Genamin® T050 (“Ad2”, 300 g/ha Preference® (“Ad3”) and optionally 250, 500 or 1000 g/ha K2CO3. Deionised water (hardness <1° dH) was used to prepare the samples. Dicamba BAPMA refers to the bis(3-aminopropyl)methylamine salt of dicamba.

pH of tank mix = assay type: physicochemical
Method: The liquid aqueous composition may have a pH value of at least pH 4.0, preferably of at least 6.0, better of at least 7.0, more preferably of at least 7.5, especially preferred of at least 8.0 and in particular of at least 8.5. The liquid aqueous composition may have a pH of up to 13.0, preferably of up to 11.0 and in particular of up to 9.0. The pH value is usually determined at 20° C.

CN(CCCN)CCCN.COc1c(Cl)ccc(Cl)c1C(=O)O [Dicamba BAPMA, bis(3-aminopropyl)methylamine salt of dicamba]
Loss of dicamba, Loss (wt %) ([1]; 500 g/ha dicamba (free acid), 1000 g/ha potassium glyphosate where Gly-K, deionised water): <1 wt % | pH of tank mix (pH of tank mix; Example 7 tank mix, 500 g/ha dicamba (free acid), deionised water (hardness <1° dH)): 6.3

COc1c(Cl)ccc(Cl)c1C(=O)O [Dicamba free acid, dicamba]
Loss of dicamba, Loss (wt %) ([1]; application rate 500 g/ha dicamba, tank mix 300 l/ha): 80 wt % | pH of tank mix (pH of tank mix; Example 6 tank mix, application rate 500 g/ha dicamba, 300 l/ha): 3.0
